Like-named read-outs stand apart in the source and are kept apart here.
Columns and labels:
[1] = tested on: Br2 (600/30) exposed neonatal mice; details: mouse, in vivo
[2] = tested on: human bronchial epithelial cells (HBECs); type: cell-based
ENaC = ENaC (Homo sapiens, UniProt P37088+P51168+P51170); type: cell-based
CFTR = CFTR (Homo sapiens, UniProt P13569); type: cell-based
Na^+/K^+-ATPase = type: cell-based, human
α, β, γ-hENaC = α, β, γ-hENaC (Homo sapiens, UniProt P37088+P51168+P51170); type: cell-based
[3] = target: 4 pS amiloride-sensitive highly Na^+ selective channel (ENaC) (Mus musculus, UniProt Q61180+Q9WU38+Q9WU39); type: cell-based
[4] = tested on: 16 pS non-selective cation channel; type: cell-based, mouse; details: read-out: IC50, decrease of open probability of 16 pS channel
[5] = tested on: C57BL/6 mice exposed to Br2 gas; details: mouse, in vivo
[6] = tested on: C57BL/6 mice exposed to Cl2, Br2 or COCl2; details: mouse, in vivo
[7] = tested on: Neonatal mice exposed to Cl2; details: mouse, in vivo
[8] = tested on: P. aeruginosa (strain PAK); details: mouse, in vivo
P aeruginosa = type: cell-based, mouse
[9] = tested on: C57BL/6 mice exposed to COCl2; details: mouse, in vivo
[10] = tested on: Mice having sickle cell disease exposed to chlorine; details: mouse, in vivo
[11] = tested on: C57bl/6 mice exposed to Br2; details: mouse, in vivo
[12] = mouse, in vivo
[13] = mouse, in vivo; remark: listed apart in the source
[14] = mouse, in vivo; cited from earlier work

Chain of ENaC (P51168 whole entry): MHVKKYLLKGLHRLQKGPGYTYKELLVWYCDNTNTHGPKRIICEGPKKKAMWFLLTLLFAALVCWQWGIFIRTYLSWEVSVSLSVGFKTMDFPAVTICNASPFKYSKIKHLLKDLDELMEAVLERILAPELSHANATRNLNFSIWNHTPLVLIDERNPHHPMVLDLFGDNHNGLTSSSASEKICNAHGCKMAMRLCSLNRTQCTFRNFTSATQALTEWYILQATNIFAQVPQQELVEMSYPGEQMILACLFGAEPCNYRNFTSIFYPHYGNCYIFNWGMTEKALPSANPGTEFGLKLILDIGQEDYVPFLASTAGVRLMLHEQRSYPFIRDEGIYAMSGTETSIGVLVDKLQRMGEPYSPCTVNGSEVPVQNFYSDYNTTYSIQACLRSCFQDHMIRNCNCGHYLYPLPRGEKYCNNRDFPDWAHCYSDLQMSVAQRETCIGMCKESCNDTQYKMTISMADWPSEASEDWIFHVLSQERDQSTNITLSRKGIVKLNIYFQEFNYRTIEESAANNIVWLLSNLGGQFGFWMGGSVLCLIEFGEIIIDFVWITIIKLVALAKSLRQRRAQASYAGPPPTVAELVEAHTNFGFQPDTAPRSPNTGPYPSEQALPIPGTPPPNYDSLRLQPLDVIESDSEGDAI
Chain of ENaC (P51170 whole entry): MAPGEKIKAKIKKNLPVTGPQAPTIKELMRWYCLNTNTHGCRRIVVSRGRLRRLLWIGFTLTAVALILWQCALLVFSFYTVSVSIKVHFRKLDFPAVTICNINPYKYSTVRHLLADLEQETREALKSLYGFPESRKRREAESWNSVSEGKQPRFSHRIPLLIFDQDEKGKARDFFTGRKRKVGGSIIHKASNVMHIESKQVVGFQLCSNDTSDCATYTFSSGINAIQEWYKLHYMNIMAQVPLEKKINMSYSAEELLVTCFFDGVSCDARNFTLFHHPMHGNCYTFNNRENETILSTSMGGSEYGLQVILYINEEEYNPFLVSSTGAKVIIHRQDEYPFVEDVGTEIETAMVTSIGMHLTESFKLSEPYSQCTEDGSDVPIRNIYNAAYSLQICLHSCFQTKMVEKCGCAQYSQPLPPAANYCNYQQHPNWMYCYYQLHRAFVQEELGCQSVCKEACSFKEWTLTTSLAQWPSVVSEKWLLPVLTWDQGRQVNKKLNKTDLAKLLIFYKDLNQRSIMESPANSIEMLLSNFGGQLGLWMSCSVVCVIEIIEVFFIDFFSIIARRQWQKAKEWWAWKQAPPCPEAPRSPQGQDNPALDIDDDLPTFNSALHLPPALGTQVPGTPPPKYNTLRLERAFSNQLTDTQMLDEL
Chain of ENaC (P37088 whole entry): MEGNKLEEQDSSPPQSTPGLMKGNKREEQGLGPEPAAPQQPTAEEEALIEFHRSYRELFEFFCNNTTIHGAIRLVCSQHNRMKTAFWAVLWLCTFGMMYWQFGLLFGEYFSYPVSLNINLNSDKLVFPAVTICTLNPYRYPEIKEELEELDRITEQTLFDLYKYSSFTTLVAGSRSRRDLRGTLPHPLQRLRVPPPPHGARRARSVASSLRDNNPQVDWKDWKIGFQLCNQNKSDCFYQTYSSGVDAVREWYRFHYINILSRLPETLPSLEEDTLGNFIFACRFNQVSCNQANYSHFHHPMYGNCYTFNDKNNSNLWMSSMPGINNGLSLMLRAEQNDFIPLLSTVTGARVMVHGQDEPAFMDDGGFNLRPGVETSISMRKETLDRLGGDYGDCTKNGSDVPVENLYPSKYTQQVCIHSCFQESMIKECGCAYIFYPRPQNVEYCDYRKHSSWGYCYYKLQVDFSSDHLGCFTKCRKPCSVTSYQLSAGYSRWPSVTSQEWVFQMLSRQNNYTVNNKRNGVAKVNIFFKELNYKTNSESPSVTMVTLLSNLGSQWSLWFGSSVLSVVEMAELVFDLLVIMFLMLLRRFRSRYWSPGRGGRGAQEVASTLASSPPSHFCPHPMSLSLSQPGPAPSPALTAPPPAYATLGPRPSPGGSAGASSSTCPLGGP
Chain of α, β, γ-hENaC (P51168 whole entry): as the sequence (P51168 whole entry) above
Chain of α, β, γ-hENaC (P51170 whole entry): as the sequence (P51170 whole entry) above
Chain of α, β, γ-hENaC (P37088 whole entry): as the sequence (P37088 whole entry) above
Chain of 4 pS amiloride-sensitive highly Na^+ selective channel (ENaC) (Q9WU38 whole entry): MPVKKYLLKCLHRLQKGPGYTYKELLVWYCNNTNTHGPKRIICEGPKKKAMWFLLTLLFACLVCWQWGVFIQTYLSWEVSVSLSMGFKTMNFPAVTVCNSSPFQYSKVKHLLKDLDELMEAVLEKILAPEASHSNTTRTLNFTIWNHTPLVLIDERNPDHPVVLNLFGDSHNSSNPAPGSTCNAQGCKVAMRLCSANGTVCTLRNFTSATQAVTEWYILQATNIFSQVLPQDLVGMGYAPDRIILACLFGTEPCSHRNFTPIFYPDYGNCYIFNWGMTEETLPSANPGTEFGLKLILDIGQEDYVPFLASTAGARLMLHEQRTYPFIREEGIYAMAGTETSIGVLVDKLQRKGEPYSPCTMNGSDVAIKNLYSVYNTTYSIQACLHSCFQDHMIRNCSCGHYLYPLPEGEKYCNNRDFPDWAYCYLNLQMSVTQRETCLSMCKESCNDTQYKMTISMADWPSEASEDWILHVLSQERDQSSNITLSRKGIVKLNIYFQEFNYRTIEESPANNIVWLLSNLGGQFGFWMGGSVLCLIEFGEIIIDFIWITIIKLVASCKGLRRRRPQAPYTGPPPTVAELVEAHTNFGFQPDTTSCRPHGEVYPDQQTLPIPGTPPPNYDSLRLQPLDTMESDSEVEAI
Chain of 4 pS amiloride-sensitive highly Na^+ selective channel (ENaC) (Q9WU39 whole entry): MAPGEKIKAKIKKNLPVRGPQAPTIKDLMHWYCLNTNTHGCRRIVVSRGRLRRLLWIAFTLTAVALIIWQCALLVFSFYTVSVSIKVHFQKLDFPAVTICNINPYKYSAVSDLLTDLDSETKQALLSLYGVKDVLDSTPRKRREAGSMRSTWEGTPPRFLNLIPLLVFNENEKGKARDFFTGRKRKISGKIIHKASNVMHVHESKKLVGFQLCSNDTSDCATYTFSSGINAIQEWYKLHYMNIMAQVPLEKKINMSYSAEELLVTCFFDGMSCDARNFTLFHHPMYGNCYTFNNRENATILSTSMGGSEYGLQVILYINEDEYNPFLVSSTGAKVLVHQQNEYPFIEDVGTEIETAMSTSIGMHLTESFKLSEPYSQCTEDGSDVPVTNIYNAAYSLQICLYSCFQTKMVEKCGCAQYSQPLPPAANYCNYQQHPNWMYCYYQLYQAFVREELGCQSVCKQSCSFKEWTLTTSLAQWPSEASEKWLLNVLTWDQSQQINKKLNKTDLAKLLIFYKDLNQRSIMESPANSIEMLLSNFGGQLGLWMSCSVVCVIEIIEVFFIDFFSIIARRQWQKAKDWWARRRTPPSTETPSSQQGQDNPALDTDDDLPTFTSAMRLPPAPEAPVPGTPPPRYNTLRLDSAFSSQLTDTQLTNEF
Chain of 4 pS amiloride-sensitive highly Na^+ selective channel (ENaC) (Q61180 whole entry): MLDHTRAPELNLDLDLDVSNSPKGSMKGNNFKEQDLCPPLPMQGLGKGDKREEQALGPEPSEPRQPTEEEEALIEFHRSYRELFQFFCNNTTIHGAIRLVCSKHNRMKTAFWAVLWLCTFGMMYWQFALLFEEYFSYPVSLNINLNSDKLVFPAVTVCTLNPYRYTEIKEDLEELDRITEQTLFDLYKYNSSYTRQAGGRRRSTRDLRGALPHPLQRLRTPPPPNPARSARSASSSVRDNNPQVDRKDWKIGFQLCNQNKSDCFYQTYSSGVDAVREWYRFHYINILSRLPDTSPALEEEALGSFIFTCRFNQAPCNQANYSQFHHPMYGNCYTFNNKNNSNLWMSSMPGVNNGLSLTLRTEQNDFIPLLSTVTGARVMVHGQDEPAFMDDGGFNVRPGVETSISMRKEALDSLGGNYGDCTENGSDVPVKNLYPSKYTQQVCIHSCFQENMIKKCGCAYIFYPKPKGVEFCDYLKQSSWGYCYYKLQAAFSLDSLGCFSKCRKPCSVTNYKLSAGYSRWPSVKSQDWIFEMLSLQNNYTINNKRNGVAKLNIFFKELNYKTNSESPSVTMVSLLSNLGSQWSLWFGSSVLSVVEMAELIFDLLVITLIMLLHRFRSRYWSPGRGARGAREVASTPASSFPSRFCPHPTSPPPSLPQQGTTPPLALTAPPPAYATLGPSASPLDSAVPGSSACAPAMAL

Compound: OCC1OC([S][Au])C(O)C(O)C1O [ATG, gold(1+);(3R,4S,5S,6R)-3,4,5-trihydroxy-6-(hydroxymethyl) oxane-2-thiolate, reference compound]
- mortality [1]: not effective
- systemic hypoxia [1]: not effective

Compound: ferric chloride heme
- ER stress marker ATF4 [2]: increased
- ER stress marker CHOP [2]: increased
- ENaC activity (ENaC): totally inhibited
- transepithelial resistance (ENaC): above 1500 Ohms*cm^2
- EC50 (ENaC; read-out: EC50, inhibition of trans-epithelial Na^+ transport across human airway cells): 0.5 µM
- IC50 (ENaC; read-out: IC50, inhibition of amiloride-sensitive ENaC short circuit current): ~0.5 µM
- forskolin-stimulated, GlyH-101-inhibited CFTR currents (CFTR): inhibited amiloride-sensitive, ENaC, but not forskolin-stimulated, GlyH-101-inhibited, CFTR, currents
- Na^+/K^+-ATPase function (ouabain-sensitive current) (Na^+/K^+-ATPase): did not impair
- Na^+ current (whole cell) (α, β, γ-hENaC): inhibited
- inhibition of whole-cell Na^+ current (α, β, γ-hENaC; 1 µM): 80%
- EC50 ([3]; read-out: EC50, inhibition of ENaC and cation Na^+ channels in mouse alveolar cells): 0.125 µM
- IC50 ([3]; read-out: IC50, decrease of open probability of 4 pS channel): 0.125 µM
- IC50 [4]: 0.125 µM

Compound: Hemopexin [Hpx]
- ATF4 and CHOP, immunohistochemical staining of lung sections ([5]; ip): attenuated ATF4 and CHOP levels around airways and completely abrogated the ER stress markers in the lung parenchyma
- BALF elastase activity ([5]; ip): lower
- BALF protein levels ([5]; ip): significantly reduced
- BALF total cell count ([5]; ip): significantly reduced
- PV curve, lung compliance and inspiratory capacity ([5]; ip): prevented the shifting of the PV curve
- alveolar Lm ([5]; ip): reduced
- lung ATF4 (immunoblot) ([5]; ip): low levels
- lung CHOP (immunoblot) ([5]; ip): low levels
- lung collagen levels on Masson's trichrome staining ([5]; ip): significantly reduced
- lung hydroxyproline levels ([5]; ip): significantly reduced
- overall mortality (Kaplan-Meier) ([5]; ip): reduced overall mortality
- plasma elastase levels ([5]; ip): lower
- plasma heme ([5]; ip): reduced
- BALF heme [6]: attenuated
- BALF inflammatory cell count [6]: attenuated
- BALF protein levels [6]: reduced
- BALF proteins [6]: attenuated
- mortality (Kaplan-Meier) [6]: reduced mortality
- apical cytoplasm of the bronchial epithelium (histology) [7]: exhibited some improvement
- cellularity of alveolar septae (histology) [7]: exhibited some recovery
- mean linear intercept (MLI) [7]: decreased MLI
- survival [7]: improved survival
- mortality [1]: not effective
- systemic hypoxia [1]: not effective
- bacterial colonies from lung homogenates on agar plates [8]: grew fewer bacterial colonies
- survival [8]: improved survival
- bactericidal function of neutrophils (bacterial colonies on agar) (P aeruginosa): improved neutrophil function
- BALF protein levels [9]: reduced BALF protein levels
- probability of survival [10]: higher probability of survival
- survival (Kaplan Meier) [11]: improved survival
- time plasma level is maintained / remains stable [12]: at least 24 h
- plasma bioavailability (plasma concentration) ([12]; im): about 25 μg/ml
- plasma [IgM] relative to control [13]: ≤ 8%
- serum half-life [14]: approximately 7 days

Compound: O=C(/C=C/c1ccccc1)NC(NC(=S)Nc1cccc2cccnc12)C(Cl)(Cl)Cl (stereo not drawn) [salubrinal, (2E)-3-Phenyl-N-[2,2,2-trichloro-1-[[(8-quinolinylamino)thioxomethyl]amino]ethyl]2-propenamide, reference compound]
- BALF elastase activity [5]: attenuated
- BALF protein levels [5]: ameliorated
- BALF total cell count [5]: ameliorated
- Masson's trichrome staining of lungs (collagen, fibrotic changes) [5]: decreased collagen levels and lung fibrotic changes
- alveolar mean linear intercept (Lm) [5]: attenuated
- lung CHOP levels (immunoblot) [5]: decrease
- lung hydroxyproline levels [5]: decreased collagen levels
- lung phosphorylated eIF2α (immunoblot) [5]: significant increase
- lung volumes (PV curve), lung compliance and inspiratory capacity [5]: prevented Br2-induced increase
- plasma elastase levels [5]: attenuated

Compound: heme-Hpx complex: complex of heme with hemopexin
- serum half-life [14]: approximately 7 h

Compound: BrBr [Br2, bromine]
- ER stress marker ATF4 [2]: increased
- ER stress marker CHOP [2]: remained unaltered

Compound: nitrite [reference compound]
- survival (Kaplan Meier) [11]: improved survival early
